Results reported in patent publication US20110166123A1, “NOVEL COMPOSITIONS AND METHODS OF USE” (priority 2008, published 2011).

System: human immunodeficiency virus type 1 (HIV-1)
Experiment: microbe, parasite or virus in culture
Format: cell-based
Settings: Human immunodeficiency virus 1, HeLa, 48 h, HIV-1 luciferase reporter, HeLa cells, 48 hours after infection

Compound CC(C)Oc1nc2c(cc1Cc1cccc(Cl)c1F)c(=O)c(C(=O)O)cn2[C@H](CO)C(C)(C)C [Example 2D] has an EC50 of 0.01 to 0.1 µM.

Compound COc1nc2c(cc1NCc1c(F)ccc(F)c1F)c(=O)c(C(=O)O)cn2[C@H](CO)C(C)C [Example 20GG, (S)-1-(1-hydroxy-3-methylbutan-2-yl)-7-methoxy-4-oxo-6-(2,3,6-trifluorobenzylamino)-1,4-dihydro-1,8-naphthyridine-3-carboxylic acid] has an EC50 of 0.01 to 0.1 µM.

For COc1nc2c(cc1NCc1ccc(F)cc1)c(=O)c(C(=O)O)cn2[C@H](CO)C(C)C [Example 20C, (S)-6-(4-fluorobenzylamino)-1-(1-hydroxy-3-methylbutan-2-yl)-7-methoxy-4-oxo-1,4-dihydro-1,8-naphthyridine-3-carboxylic acid], the EC50 was 0.01 to 0.1 µM.

In the case of CC(C)[C@@H](CO)n1cc(C(=O)O)c(=O)c2cc(Cc3cccc(Cl)c3F)nnc21 [Example 6, 3-(3-chloro-2-fluorobenzyl)-8-(1-hydroxy-3-methylbutan-2-yl)-5-oxo-5,8-dihydropyrido[2,3-c]pyridazine-6-carboxylic acid], the EC50 is reported as > 0.1 µM.

COc1nc2c(cc1Cc1cccc(Cl)c1F)c(=O)c(C(=O)O)cn2[C@H]1CCCC[C@@H]1O [Example 1P] was tested, and the EC50 was > 0.1 µM.

In the case of O=C(O)c1cn([C@H](CO)C2CCCCC2)c2cnc(Cc3cccc(Cl)c3F)cc2c1=O [Example 5M], the EC50 is reported as 0.01 to 0.1 µM.

In the case of COCCOc1nc2c(cc1Cc1cccc(Cl)c1F)c(=O)c(C(=O)O)cn2[C@H](CO)C(C)(C)C [Example 2H], the EC50 is reported as < 0.01 µM.

For COc1nc2c(cc1CNc1ccc(F)cc1)c(=O)c(C(=O)O)cn2[C@H](CO)C(C)C [Example 12D], the EC50 was > 0.1 µM.

For COc1ccc(-c2cc3c(=O)c(C(=O)O)cn([C@H](CO)C(C)C)c3nc2OC)cn1 [Example 17H], the EC50 was > 0.1 µM.

COc1nc2c(cc1NCc1ccc(C(F)(F)F)cc1)c(=O)c(C(=O)O)cn2[C@H](CO)C(C)C [Example 20Y, (S)-1-(1-hydroxy-3-methylbutan-2-yl)-7-methoxy-4-oxo-6-(4-(trifluoromethyl)benzylamino)-1,4-dihydro-1,8-naphthyridine-3-carboxylic acid] was tested, and the EC50 was > 0.1 µM.

CCCn1cc(C(=O)NN)c(=O)c2c(N)nc(SC)nc21 [Example 7C] was tested, and the EC50 was > 0.1 µM.

With COc1nc2c(cc1NCc1ccc(Cl)cc1)c(=O)c(C(=O)O)cn2[C@H](CO)C(C)C [Example 20J, (S)-6-(4-chlorobenzylamino)-1-(1-hydroxy-3-methylbutan-2-yl)-7-methoxy-4-oxo-1,4-dihydro-1,8-naphthyridine-3-carboxylic acid] the EC50 was > 0.1 µM.

For CC(C)[C@@H](CO)n1cc(C(=O)O)c(=O)c2cc(OCc3ccc(F)cc3)ccc21 [Example 23A, (S)-6-(4-fluorobenzyloxy)-1-(1-hydroxy-3-methylbutan-2-yl)-4-oxo-1,4-dihydroquinoline-3-carboxylic acid], the EC50 was > 0.1 µM.

O=C(O)c1c[nH]c2cnc(Cc3cccc(Cl)c3)nc2c1=O [Example 10A, 2-(3-chlorobenzyl)-8-oxo-5,8-dihydropyrido[3,2-d]pyrimidine-7-carboxylic acid] was tested, and the EC50 was > 0.1 µM.

In the case of CC(C)[C@@H](CO)n1cc(C(=O)O)c(=O)c2cc(Nc3cccc(Cl)c3F)ncc21 [Example 16A, (S)-6-(3-chloro-2-fluorophenylamino)-1-(1-hydroxy-3-methylbutan-2-yl)-4-oxo-1,4-dihydro-1,7-naphthyridine-3-carboxylic acid], the EC50 is reported as > 0.1 µM.

With COc1nc2c(cc1Nc1ccc(Cl)c(F)c1)c(=O)c(C(=O)O)cn2[C@H](CO)C(C)C [Example 20PP, (S)-6-(4-chloro-3-fluorophenylamino)-1-(1-hydroxy-3-methylbutan-2-yl)-7-methoxy-4-oxo-1,4-dihydro-1,8-naphthyridine-3-carboxylic acid] the EC50 was > 0.1 µM.

For COc1nc2c(cc1-c1ccncc1)c(=O)c(C(=O)O)cn2[C@H](CO)C(C)C [Example 17G], the EC50 was > 0.1 µM.

COc1nc2c(cc1CN1CCc3ccccc3C1)c(=O)c(C(=O)O)cn2[C@H](CO)C(C)C [Example 12H] was tested, and the EC50 was > 0.1 µM.

For COc1ccc(COc2cc3c(=O)c(C(=O)O)cn([C@H](CO)C(C)(C)C)c3cc2OC)cc1 [Example 29E, (S)-1-(1-hydroxy-3,3-dimethylbutan-2-yl)-7-methoxy-6-(4-methoxybenzyloxy)-4-oxo-1,4-dihydroquinoline-3-carboxylic acid], the EC50 was > 0.1 µM.

With CCOc1nc2c(cc1NCc1ccc(F)cc1)c(=O)c(C(=O)O)cn2[C@H](CO)C(C)C [Example 27A, (S)-7-Ethoxy-6-(4-fluorobenzylamino)-1-(1-hydroxy-3-methylbutan-2-yl)-4-oxo-1,4-dihydro-1,8-naphthyridine-3-carboxylic acid] the EC50 was > 0.1 µM.

CCC[C@@H](CO)n1cc(C(=O)O)c(=O)c2cc(Cc3cccc(Cl)c3F)ncc21 [Example 5I] was tested, and the EC50 was > 0.1 µM.

For COc1nc2c(cc1-c1ccc(Cl)c(F)c1)c(=O)c(C(=O)O)cn2[C@H](CO)C(C)C [Example 17B], the EC50 was > 0.1 µM.

For CC(C)(C)[C@@H](CO)n1cc(C(=O)NCCCn2ccnc2)c(=O)c2cc(Cc3cccc(Cl)c3F)c(NCCCn3ccnc3)nc21 [Example 2HH], the EC50 was > 0.1 µM.

COc1nc2c(cc1Cc1cccc(Cl)c1F)c(=O)c(C(=O)O)cn2C[C@@H](O)c1ccccc1 [Example 1R] was tested, and the EC50 was > 0.1 µM.

With COc1cc2c(cc1Oc1c(F)cc(F)cc1F)c(=O)c(C(=O)O)cn2[C@H](CO)C(C)(C)C [Example 29F] the EC50 was > 0.1 µM.

For O=C(O)c1cn([C@@H](CO)c2ccccc2)c2cnc(Cc3cccc(Cl)c3F)cc2c1=O [Example 5P], the EC50 was > 0.1 µM.

With CC[C@@H](CO)n1cc(C(=O)O)c(=O)c2cc(Cc3cccc(Cl)c3F)ncc21 [Example 5G] the EC50 was > 0.1 µM.

In the case of CC(C)[C@@H](CO)n1cc(C(=O)O)c(=O)c2cc(Cc3ccc(F)c(F)c3)ncc21 [Example 5B, 6-(3,4-Difluoro-benzyl)-1-((S)-1-hydroxymethyl-2-methyl-propyl)-4-oxo-1,4-dihydro-[1,7]naphthyridine-3-carboxylic acid], the EC50 is reported as > 0.1 µM.

CC(C)(C)[C@@H](CO)n1cc(C(=O)O)c(=O)c2cc(OCc3ccc(F)cc3F)ccc21 [Example 23B, (S)-6-(2,4-difluorobenzyloxy)-1-(1-hydroxy-3,3-dimethylbutan-2-yl)-4-oxo-1,4-dihydroquinoline-3-carboxylic acid] was tested, and the EC50 was > 0.1 µM.

In the case of COc1nc2c(cc1Cc1cccc(Cl)c1F)c(=O)c(C(=O)O)cn2C(CO)CO [Example 1M], the EC50 is reported as > 0.1 µM.

CCCC[C@@H](CO)n1cc(C(=O)O)c(=O)c2cc(Cc3cccc(Cl)c3F)ncc21 [Example 5J] was tested, and the EC50 was > 0.1 µM.

In the case of CC(C)[C@@H](CO)n1cc(C(=O)O)c(=O)c2cc(NCc3c(F)cc(F)cc3F)ccc21 [Example 22C, (S)-1-(1-hydroxy-3-methylbutan-2-yl)-4-oxo-6-(2,4,6-trifluorobenzylamino)-1,4-dihydroquinoline-3-carboxylic acid], the EC50 is reported as 0.01 to 0.1 µM.

CC(C)(C)[C@@H](CO)n1cc(C(=O)O)c(=O)c2cc(Cc3cccc(Cl)c3F)c(NCc3ccccn3)nc21 [Example 2FF] was tested, and the EC50 was < 0.01 µM.

Compound CC(C)(C)[C@@H](CO)n1cc(C(=O)O)c(=O)c2cc(Cc3cccc(Cl)c3F)c(OCCN3CCOCC3)nc21 [Example 2M] has an EC50 of 0.01 to 0.1 µM.

For CC(C)[C@@H](CO)n1cc(C(=O)O)c(=O)c2cc(Cc3ccccc3)cnc21 [Example 4C], the EC50 was > 0.1 µM.

COc1nc2c(cc1CNc1cccc3c1CCCC3)c(=O)c(C(=O)O)cn2[C@H](CO)C(C)C [Example 12E] was tested, and the EC50 was > 0.1 µM.

Cc1cc2c(cc1NCc1ccc(F)cc1)c(=O)c(C(=O)O)cn2[C@H](CO)C(C)(C)C [Example 25C, (S)-6-(4-fluorobenzylamino)-1-(1-hydroxy-3,3-dimethylbutan-2-yl)-7-methyl-4-oxo-1,4-dihydroquinoline-3-carboxylic acid] was tested, and the EC50 was 0.01 to 0.1 µM.

CC(C)(C)[C@@H](CO)n1cc(C(=O)O)c(=O)c2cc(Cc3cccc(Cl)c3F)c(OCCCCO)nc21 [Example 2G] showed an EC50 of 0.01 to 0.1 µM.

With COc1nc(Cc2cccc(Cl)c2F)cc2c(=O)c(C(=O)O)cn([C@H](CO)C(C)C)c12 [Example 5D, 6-(3-Chloro-2-fluoro-benzyl)-1-((S)-1-hydroxymethyl-2-methyl-propyl)-8-methoxy-4-oxo-1,4-dihydro-1,7-naphthyridine-3-carboxylic acid] the EC50 was > 0.1 µM.

In the case of COc1nc2c(cc1N1CCCc3ccccc31)c(=O)c(C(=O)O)cn2[C@H](CO)C(C)C [Example 17O], the EC50 is reported as > 0.1 µM.

In the case of CC(C)(C)[C@@H](CO)n1cc(C(=O)O)c(=O)c2cc(Cc3cccc(Cl)c3F)c(NCCCN3CCCC3=O)nc21 [Example 2EE], the EC50 is reported as < 0.01 µM.

COc1nc2c(cc1NCc1ccc(F)cc1F)c(=O)c(C(=O)O)cn2[C@H](CO)C(C)C [Example 20R, (S)-6-(2,4-difluorobenzylamino)-1-(1-hydroxy-3-methylbutan-2-yl)-7-methoxy-4-oxo-1,4-dihydro-1,8-naphthyridine-3-carboxylic acid] showed an EC50 of 0.01 to 0.1 µM.

With CC(C)[C@H]1COc2nc(Cc3cccc(Cl)c3F)cc3c(=O)c(C(=O)O)cn1c23 [Example 5E, (S)-8-(3-chloro-2-fluoro-benzyl)-3-isopropyl-6-oxo-2,3-dihydro-6H-1-oxa-3a,9-diaza-phenalene-5-carboxylic acid] the EC50 was > 0.1 µM.

In the case of O=C(O)c1cn(CCO)c2ncc(Cc3cccc(Cl)c3Cl)cc2c1=O [Example 4E], the EC50 is reported as > 0.1 µM.

With COc1nc2c(cc1NCc1cccc(Cl)c1)c(=O)c(C(=O)O)cn2[C@H](CO)C(C)C [Example 20I, (S)-6-(3-chlorobenzylamino)-1-(1-hydroxy-3-methylbutan-2-yl)-7-methoxy-4-oxo-1,4-dihydro-1,8-naphthyridine-3-carboxylic acid] the EC50 was > 0.1 µM.

With CC(C)(C)[C@@H](CO)n1cc(C(=O)O)c(=O)c2cc(Cc3cccc(Cl)c3F)c(N3CCOCC3)nc21 [Example 2A, (S)-6-(3-chloro-2-fluorobenzyl)-7-morpholin-1-(1-hydroxy-3,3-dimethylbutan-2-yl)-4-oxo-1,4-dihydro-1,8-naphthyridine-3-carboxylic acid] the EC50 was < 0.01 µM.

For COc1nc2c(cc1N(C)Cc1ccccc1F)c(=O)c(C(=O)O)cn2[C@H](CO)C(C)C [Example 20U, (S)-6-((2-fluorobenzyl)(methyl)amino)-1-(1-hydroxy-3-methylbutan-2-yl)-7-methoxy-4-oxo-1,4-dihydro-1,8-naphthyridine-3-carboxylic acid], the EC50 was > 0.1 µM.
